In patent publication US10894784B2, “Heteroarylbenzimidazole compounds” (BAYER PHARMA AKTIENGESELLSCHAFT, priority 2015, dated 2021):

These compounds were tested against TBK1 (Homo sapiens (Human), UniProt Q9UHD2) (assay: TBK1 low ATP kinase assay (in vitro assay 1)). Conditions: in vitro assay 1, read-out: TBK1 low ATP kinase assay IC50.
Assay type: biochemical

TBK1, sequence (Q9UHD2 whole entry): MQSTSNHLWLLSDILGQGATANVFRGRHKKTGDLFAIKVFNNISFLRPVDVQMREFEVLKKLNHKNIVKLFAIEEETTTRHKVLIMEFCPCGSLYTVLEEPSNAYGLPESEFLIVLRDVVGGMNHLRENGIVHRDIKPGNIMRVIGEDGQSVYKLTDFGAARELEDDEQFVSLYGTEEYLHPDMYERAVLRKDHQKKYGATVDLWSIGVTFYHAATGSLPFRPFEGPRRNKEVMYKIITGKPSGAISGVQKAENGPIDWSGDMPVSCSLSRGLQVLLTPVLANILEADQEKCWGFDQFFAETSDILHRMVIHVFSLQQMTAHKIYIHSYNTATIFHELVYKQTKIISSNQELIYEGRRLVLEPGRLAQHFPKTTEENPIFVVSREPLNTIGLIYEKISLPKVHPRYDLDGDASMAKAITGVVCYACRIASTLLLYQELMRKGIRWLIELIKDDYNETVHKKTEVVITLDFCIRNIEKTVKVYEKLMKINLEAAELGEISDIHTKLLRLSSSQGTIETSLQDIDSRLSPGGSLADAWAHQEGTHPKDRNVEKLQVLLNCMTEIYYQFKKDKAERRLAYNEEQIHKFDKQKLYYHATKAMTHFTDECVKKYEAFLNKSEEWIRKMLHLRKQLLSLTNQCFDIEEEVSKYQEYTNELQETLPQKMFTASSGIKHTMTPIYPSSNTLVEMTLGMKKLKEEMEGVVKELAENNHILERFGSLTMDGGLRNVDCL

| SMILES | IC50 [nM] |
| --- | --- |
| COc1c(-c2ccc3nc(Nc4cc(C(C)N5CCN(C(=O)OC(C)(C)C)CC5)ccn4)[nH]c3c2)ncnc1N1CCCC1 (single isomer, unassigned) [Example 112.01, tert-butyl 4-{(1R or S)-1-[2-({6-[5-methoxy-6-(pyrrolidin-1-yl)pyrimidin-4-yl]-1H-benzimidazol-2-yl}amino)pyridin-4-yl]ethyl}piperazine-1-carboxylate] | 8.2 |
| COc1c(-c2ccc3nc(Nc4cc(C(C)N5CCN(C(=O)C6CC6)CC5)ccn4)[nH]c3c2)ncnc1N1CCCC1 (single isomer, unassigned) [Example 112.02, cyclopropyl(4-{(1R or 1S)-1-[2-({6-[5-methoxy-6-(pyrrolidin-1-yl)pyrimidin-4-yl]-1H-benzimidazol-2-yl}amino)pyridin-4-yl]ethyl}piperazin-1-yl)methanone] | 1.3 |
| COc1c(-c2ccc3nc(Nc4cc(C(C)N5CCN(C(=O)CC(F)(F)F)CC5)ccn4)[nH]c3c2)ncnc1N1CCCC1 (single isomer, unassigned) [Example 112.03, 3,3,3-trifluoro-1-(4-{(1R or 1S)-1-[2-({6-[5-methoxy-6-(pyrrolidin-1-yl)pyrimidin-4-yl]-1H-benzimidazol-2-yl}amino)pyridin-4-yl]ethyl}piperazin-1-yl)propan-1-one] | 1.4 |
| COc1c(-c2ccc3nc(Nc4cc(C(C)N5CCN(C(=O)C6CC6)CC5)ccn4)[nH]c3c2)ncnc1N1CC(F)(F)C1 (single isomer, unassigned) [Example 113.03, cyclopropyl(4-{(1R or 1S)-1-[2-({6-[6-(3,3-difluoroazetidin-1-yl)-5-methoxypyrimidin-4-yl]-1H-benzimidazol-2-yl}amino)pyridin-4-yl]ethyl}piperazin-1-yl)methanone] | 1.1 |
| COc1c(NC2CCC2)ncnc1-c1ccc2nc(Nc3cc(C(C)N4CCN(C(=O)OC(C)(C)C)CC4)ccn3)[nH]c2c1 (single isomer, unassigned) [Example 114.01, tert-butyl 4-{(1R or 1S)-1-[2-({6-[6-(cyclobutylamino)-5-methoxypyrimidin-4-yl]-1H-benzimidazol-2-yl}amino)pyridin-4-yl]ethyl}piperazine-1-carboxylate] | 61 |
| COc1c(NC2CCC2)ncnc1-c1ccc2nc(Nc3cc(C(C)N4CCN(C(=O)CC(F)(F)F)CC4)ccn3)[nH]c2c1 (single isomer, unassigned) [Example 114.02, 1-(4-{(1R or 1S)-1-[2-({6-[6-(cyclobutylamino)-5-methoxypyrimidin-4-yl]-1H-benzimidazol-2-yl}amino)pyridin-4-yl]ethyl}piperazin-1-yl)-3,3,3-trifluoropropan-1-one] | 8.27 |
| CC(c1ccnc(Nc2nc3ccc(-c4cc(N5CCC5)ncn4)cc3[nH]2)c1)N1CCN(C(=O)OC(C)(C)C)CC1 (single isomer, unassigned) [Example 115.01, tert-butyl 4-{(1R or 1S)-1-[2-({6-[6-(azetidin-1-yl)pyrimidin-4-yl]-1H-benzimidazol-2-yl}amino)pyridin-4-yl]ethyl}piperazine-1-carboxylate] | 1.4 |
| CC(c1ccnc(Nc2nc3ccc(-c4cc(N5CCC5)ncn4)cc3[nH]2)c1)N1CCN(C(=O)CC(F)(F)F)CC1 (single isomer, unassigned) [Example 115.02, 1-(4-{(1R or 1S)-1-[2-({6-[6-(azetidin-1-yl)pyrimidin-4-yl]-1H-benzimidazol-2-yl}amino)pyridin-4-yl]ethyl}piperazin-1-yl)-3,3,3-trifluoropropan-1-one] | 0.76 |
| CC(c1ccnc(Nc2nc3ccc(-c4cc(N5CC(F)(F)C5)ncn4)cc3[nH]2)c1)N1CCN(C(=O)CC(F)(F)F)CC1 (single isomer, unassigned) [Example 116.03, 1-(4-{(1R or 1S)-1-[2-({6-[6-(3,3-difluoroazetidin-1-yl)pyrimidin-4-yl]-1H-benzimidazol-2-yl}amino)pyridin-4-yl]ethyl}piperazin-1-yl)-3,3,3-trifluoropropan-1-one] | 1.3 |
| CC(c1ccnc(Nc2nc3ccc(-c4cc(N5CC(F)(F)C5)ncn4)cc3[nH]2)c1)N1CCN(C(=O)C2(C(F)(F)F)CC2)CC1 (single isomer, unassigned) [Example 116.04, (4-{(1R or 1S)-1-[2-({6-[6-(3,3-difluoroazetidin-1-yl)pyrimidin-4-yl]-1H-benzimidazol-2-yl}amino)pyridin-4-yl]ethyl}piperazin-1-yl)[1-(trifluoromethyl)cyclopropyl]methanone] | 1 |
| CC(c1ccnc(Nc2nc3ccc(-c4cc(N5CCCC5)ncn4)cc3[nH]2)c1)N1CCN(C(=O)OC(C)(C)C)CC1 (single isomer, unassigned) [Example 117.01, tert-butyl 4-{(1R or 1S)-1-[2-({6-[6-(pyrrolidin-1-yl)pyrimidin-4-yl]-1H-benzimidazol-2-yl}amino)pyridin-4-yl]ethyl}piperazine-1-carboxylate] | 2 |
| CC(c1ccnc(Nc2nc3ccc(-c4cc(N5CCCC5)ncn4)cc3[nH]2)c1)N1CCN(C(=O)C2CC2)CC1 (single isomer, unassigned) [Example 117.02, cyclopropyl(4-{(1R or 1S)-1-[2-({6-[6-(pyrrolidin-1-yl)pyrimidin-4-yl]-1H-benzimidazol-2-yl}amino)pyridin-4-yl]ethyl}piperazin-1-yl)methanone] | 0.33 |
| CC(c1ccnc(Nc2nc3ccc(-c4cc(N5CCCC5)ncn4)cc3[nH]2)c1)N1CCN(C(=O)C2(C(F)(F)F)CC2)CC1 (single isomer, unassigned) [Example 117.04, (4-{(1R or 1S)-1-[2-({6-[6-(pyrrolidin-1-yl)pyrimidin-4-yl]-1H-benzimidazol-2-yl}amino)pyridin-4-yl]ethyl}piperazin-1-yl)[1-(trifluoromethyl)cyclopropyl]methanone] | 0.819 |
| CC(c1ccnc(Nc2nc3ccc(-c4cc(N5CCCC5)ncn4)cc3[nH]2)c1)N1CCN(C(=O)C2CC2(F)F)CC1 (single isomer, unassigned) [Example 117.05, ((1RS)-2,2-difluorocyclopropyl)(4-{(1R or 1S)-1-[2-({6-[6-(pyrrolidin-1-yl)pyrimidin-4-yl]-1H-benzimidazol-2-yl}amino)pyridin-4-yl]ethyl}piperazin-1-yl)methanone] | 0.473 |
| CC(c1ccnc(Nc2nc3ccc(-c4cc(N5CCCC5)ncn4)cc3[nH]2)c1)N1CCN(C(=O)C2(C)CC2(F)F)CC1 (single isomer, unassigned) [Example 117.06, [(1RS)-2,2-difluoro-1-methylcyclopropyl](4-{(1R or S)-1-[2-({6-[6-(pyrrolidin-1-yl)pyrimidin-4-yl]-1H-benzimidazol-2-yl}amino)pyridin-4-yl]ethyl}piperazin-1-yl)methanone] | 0.86 |
| CC(c1ccnc(Nc2nc3ccc(-c4cc(N5CCOCC5)ncn4)cc3[nH]2)c1)N1CCN(C(=O)OC(C)(C)C)CC1 (single isomer, unassigned) [Example 118.01, tert-butyl 4-{(1R or 1S)-1-[2-({6-[6-(morpholin-4-yl)pyrimidin-4-yl]-1H-benzimidazol-2-yl}amino)pyridin-4-yl]ethyl}piperazine-1-carboxylate] | 7.9 |

Continued by falling IC50, values first:

| IC50 [nM] | SMILES |
| --- | --- |
| 8.07 | COc1c(NC2CCC2)ncnc1-c1ccc2nc(Nc3cc(C(C)N4CCN(C(=O)C5CC5)CC4)ccn3)[nH]c2c1 (single isomer, unassigned) [Example 114.03, (4-{(1R or 1S)-1-[2-({6-[6-(cyclobutylamino)-5-methoxypyrimidin-4-yl]-1H-benzimidazol-2-yl}amino)pyridin-4-yl]ethyl}piperazin-1-yl)(cyclopropyl)methanone] |
| 2.7 | CC(c1ccnc(Nc2nc3ccc(-c4cc(N5CCCC5)ncn4)cc3[nH]2)c1)N1CCN(C(=O)C(C)(C)O)CC1 (single isomer, unassigned) [Example 117.07, 2-hydroxy-2-methyl-1-(4-{(1R or 1S)-1-[2-({6-[6-(pyrrolidin-1-yl)pyrimidin-4-yl]-1H-benzimidazol-2-yl}amino)pyridin-4-yl]ethyl}piperazin-1-yl)propan-1-one] |
| 1.6 | COc1c(-c2ccc3nc(Nc4cc(C(C)N5CCN(C(=O)CC(F)(F)F)CC5)ccn4)[nH]c3c2)ncnc1N1CC(F)(F)C1 (single isomer, unassigned) [Example 113.02, 1-(4-{(1R or 1S)-1-[2-({6-[6-(3,3-difluoroazetidin-1-yl)-5-methoxypyrimidin-4-yl]-1H-benzimidazol-2-yl}amino)pyridin-4-yl]ethyl}piperazin-1-yl)-3,3,3-trifluoropropan-1-one] |
| 1.4 | COc1c(-c2ccc3nc(Nc4cc(C(C)N5CCN(C(=O)CC(F)(F)F)CC5)ccn4)[nH]c3c2)ncnc1N1CCC1 (single isomer, unassigned) [Example 111.03, 1-(4-{(1R or 1S)-1-[2-({6-[6-(azetidin-1-yl)-5-methoxypyrimidin-4-yl]-1H-benzimidazol-2-yl}amino)pyridin-4-yl]ethyl}piperazin-1-yl)-3,3,3-trifluoropropan-1-one] |
| 0.76 | CC(c1ccnc(Nc2nc3ccc(-c4cc(N5CC(F)(F)C5)ncn4)cc3[nH]2)c1)N1CCN(C(=O)C2CC2)CC1 (single isomer, unassigned) [Example 116.02, cyclopropyl(4-{(1R or 1S)-1-[2-({6-[6-(3,3-difluoroazetidin-1-yl)pyrimidin-4-yl]-1H-benzimidazol-2-yl}amino)pyridin-4-yl]ethyl}piperazin-1-yl)methanone] |
| 0.62 | CC(c1ccnc(Nc2nc3ccc(-c4cc(N5CCC5)ncn4)cc3[nH]2)c1)N1CCN(C(=O)C2CC2)CC1 (single isomer, unassigned) [Example 115.03, (4-{(1R or 1S)-1-[2-({6-[6-(azetidin-1-yl)pyrimidin-4-yl]-1H-benzimidazol-2-yl}amino)pyridin-4-yl]ethyl}piperazin-1-yl)(cyclopropyl)methanone] |
| 0.49 | CC(c1ccnc(Nc2nc3ccc(-c4cc(N5CCCC5)ncn4)cc3[nH]2)c1)N1CCN(C(=O)CC(F)(F)F)CC1 (single isomer, unassigned) [Example 117.03, 3,3,3-trifluoro-1-(4-{(1R or 1S)-1-[2-({6-[6-(pyrrolidin-1-yl)pyrimidin-4-yl]-1H-benzimidazol-2-yl}amino)pyridin-4-yl]ethyl}piperazin-1-yl)propan-1-one] |
